In patent publication US20110230481A2, “DERIVATIVES OF TETRABROMOBENZIMIDAZOLE, A PROCESS FOR THE PREPARATION THEREOF, A PHARMACEUTICAL COMPOSITION COMPRISING THE SAME, A METHOD OF USING THE SAME, A METHOD FOR MODULATING OR REGULATING SERINE/THREONINE KINASES, AND SERINE/THREONINE KINASES MODULATING AGENT” (SELVITA S.A., priority 2009, published 2011):

Assays:
Experiment in all cases: KINOMEscan Max
Format in all cases: binding
ULK2 = biological target: T1, ULK2 (Homo sapiens, UniProt Q8IYT8)
T1 construct: purchased Ambit (KINOMEscan Max service)
In short: (§1)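 Steps: mix DNA-tagged kinase, immobilized active-site ligand and compound; let compound compete with ligand for the kinase; quantify the kinase retained by qPCR on its DNA tag.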

[1] = biological target: T2, RPS6KA5(Kin.Dom.1-N-terminal) (Homo sapiens, UniProt O75582)
T2 construct: RPS6KA5(Kin.Dom.1-N-terminal); DNA tag (qPCR read-out)
In short: as §1

ZAK = ZAK (Homo sapiens, UniProt Q9NYL2)
In short: as §1

EGFR(L861Q) = EGFR(L861Q) (Homo sapiens, UniProt P00533, L861Q); settings: 1 μM
In short: as §1

MUSK = biological target: T3, MUSK (Homo sapiens, UniProt O15146)
T3 construct: purchased Ambit Kinomescan (contract screening)
In short: as §1

KIT(V559D) = biological target: T4, KIT(V559D) (Homo sapiens, UniProt P10721, V559D)
T4 construct: purchased Ambit Kinomescan (contract screening)
In short: as §1

PAK7 = biological target: T5, PAK7 (Homo sapiens, UniProt Q9P286)
T5 construct: DNA tag (qPCR read-out)
In short: as §1

BRK = biological target: T6, BRK (Homo sapiens, UniProt Q13882)
T6 construct: DNA tag (qPCR label); purchased Ambit Kinomescan (contract screening)
In short: as §1

CSNK1G2 = biological target: T7, CSNK1G2 (Homo sapiens, UniProt P78368); settings: 1 μM
T7 construct: purchased Ambit (KINOMEscan Max panel service)
In short: as §1

NDR2 = NDR2 (Homo sapiens, UniProt Q9Y2H1)
In short: as §1

ERK8 = ERK8 (Homo sapiens, UniProt Q8TD08)
In short: as §1

TXK = TXK (Homo sapiens, UniProt P42681)
In short: as §1

STK39 = biological target: T8, STK39 (Homo sapiens, UniProt Q9UEW8)
T8 construct: DNA tag (qPCR read-out)
In short: as §1

MARK1 = biological target: T9, MARK1 (Homo sapiens, UniProt Q9P0L2)
T9 construct: purchased Ambit Kinomescan (contract panel)
In short: as §1

TAK1 = biological target: T10, TAK1 (Homo sapiens, UniProt O43318)
T10 construct: purchased Ambit (KINOMEscan Max service)
In short: as §1

CSNK2A1 = biological target: T11, CSNK2A1 (Homo sapiens, UniProt P68400)
T11 construct: purchased Ambit (KINOMEscan Max panel service)
In short: as §1

LATS2 = biological target: T12, LATS2 (Homo sapiens, UniProt Q9NRM7); settings: 1 μM
T12 construct: purchased Ambit (KINOMEscan Max service)
In short: as §1

CHEK2 = CHEK2 (Homo sapiens, UniProt O96017)
In short: as §1

YSK4 = YSK4 (Homo sapiens, UniProt Q56UN5)
In short: as §1

ERN1 = biological target: T13, ERN1 (Homo sapiens, UniProt O75460)
T13 construct: DNA tag (qPCR read-out)
In short: as §1

PIK3CA(Q546K) = biological target: T14, PIK3CA(Q546K) (Homo sapiens, UniProt P42336, Q546K)
T14 construct: DNA tag (qPCR read-out)
In short: as §1

ASK2 = biological target: T15, ASK2 (Homo sapiens, UniProt O95382)
T15 construct: DNA tag (qPCR read-out)
In short: as §1

[2] = biological target: T16, RPS6KA4(Kin.Dom.2-C-terminal) (Homo sapiens, UniProt O75676)
T16 construct: RPS6KA4(Kin.Dom.2-C-terminal); purchased Ambit Kinomescan (contract screening)
In short: as §1

CDK4-cyclinD3 = CDK4-cyclinD3 (Homo sapiens, UniProt P11802)
In short: as §1

BTK = biological target: T17, BTK (Homo sapiens, UniProt Q06187); settings: 1 μM
T17 construct: purchased Ambit (KINOMEscan Max service)
In short: as §1

ICK = biological target: T18, ICK (Homo sapiens, UniProt Q9UPZ9)
T18 construct: purchased Ambit Kinomescan (contract panel, KINOMEscan Max)
In short: as §1

RIOK1 = biological target: T19, RIOK1 (Homo sapiens, UniProt Q9BRS2)
T19 construct: DNA tag (qPCR read-out)
In short: as §1

PIK3CG = biological target: T20, PIK3CG (Homo sapiens, UniProt P48736)
T20 construct: purchased Ambit Kinomescan (contract screening)
In short: as §1

PIK3CA(C420R) = biological target: T21, PIK3CA(C420R) (Homo sapiens, UniProt P42336, C420R)
T21 construct: DNA tag (qPCR read-out)
In short: as §1

LRRK2(G2019S) = biological target: T22, LRRK2(G2019S) (Homo sapiens, UniProt Q5S007, G2019S)
T22 construct: purchased Ambit (KINOMEscan Max service)
In short: as §1

STK33 = STK33 (Homo sapiens, UniProt Q9BYT3)
In short: as §1

RET = biological target: T23, RET (Homo sapiens, UniProt P07949)
T23 construct: DNA tag (qPCR read-out)
In short: as §1

NIM1 = NIM1 (Homo sapiens, UniProt Q8IY84)
In short: as §1

PLK3 = biological target: T24, PLK3 (Homo sapiens, UniProt Q9H4B4)
T24 construct: purchased Ambit (KINOMEscan Max service)
In short: as §1

T20 sequence (P48736 whole entry): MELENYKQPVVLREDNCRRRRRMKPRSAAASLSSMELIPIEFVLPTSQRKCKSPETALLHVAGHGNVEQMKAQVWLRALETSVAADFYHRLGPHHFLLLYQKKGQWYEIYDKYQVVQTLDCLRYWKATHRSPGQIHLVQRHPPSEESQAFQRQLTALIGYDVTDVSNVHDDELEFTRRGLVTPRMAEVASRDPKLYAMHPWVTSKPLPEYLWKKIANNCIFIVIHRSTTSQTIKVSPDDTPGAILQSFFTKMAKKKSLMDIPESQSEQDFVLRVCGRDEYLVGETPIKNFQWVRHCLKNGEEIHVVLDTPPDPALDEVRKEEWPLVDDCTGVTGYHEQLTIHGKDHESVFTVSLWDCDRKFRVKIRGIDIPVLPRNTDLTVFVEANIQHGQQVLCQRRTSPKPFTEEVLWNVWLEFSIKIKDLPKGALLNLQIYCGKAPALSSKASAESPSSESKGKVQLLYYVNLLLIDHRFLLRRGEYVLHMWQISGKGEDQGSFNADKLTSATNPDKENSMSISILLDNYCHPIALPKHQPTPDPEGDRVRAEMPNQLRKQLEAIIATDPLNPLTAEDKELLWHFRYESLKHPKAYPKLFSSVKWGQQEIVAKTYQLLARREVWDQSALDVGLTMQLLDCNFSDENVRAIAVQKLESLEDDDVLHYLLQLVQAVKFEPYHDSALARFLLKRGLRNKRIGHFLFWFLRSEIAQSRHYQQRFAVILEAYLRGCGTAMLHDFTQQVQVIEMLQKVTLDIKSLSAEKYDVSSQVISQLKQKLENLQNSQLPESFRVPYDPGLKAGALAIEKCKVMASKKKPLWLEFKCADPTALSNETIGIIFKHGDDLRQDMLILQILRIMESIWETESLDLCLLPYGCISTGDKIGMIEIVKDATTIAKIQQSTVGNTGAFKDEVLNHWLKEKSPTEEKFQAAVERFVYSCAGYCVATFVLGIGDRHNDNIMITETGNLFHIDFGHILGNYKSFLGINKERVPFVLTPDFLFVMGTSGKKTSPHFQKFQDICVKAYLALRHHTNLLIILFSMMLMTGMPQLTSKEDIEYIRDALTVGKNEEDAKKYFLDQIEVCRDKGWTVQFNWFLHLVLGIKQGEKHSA
T23 sequence (P07949 29-1114): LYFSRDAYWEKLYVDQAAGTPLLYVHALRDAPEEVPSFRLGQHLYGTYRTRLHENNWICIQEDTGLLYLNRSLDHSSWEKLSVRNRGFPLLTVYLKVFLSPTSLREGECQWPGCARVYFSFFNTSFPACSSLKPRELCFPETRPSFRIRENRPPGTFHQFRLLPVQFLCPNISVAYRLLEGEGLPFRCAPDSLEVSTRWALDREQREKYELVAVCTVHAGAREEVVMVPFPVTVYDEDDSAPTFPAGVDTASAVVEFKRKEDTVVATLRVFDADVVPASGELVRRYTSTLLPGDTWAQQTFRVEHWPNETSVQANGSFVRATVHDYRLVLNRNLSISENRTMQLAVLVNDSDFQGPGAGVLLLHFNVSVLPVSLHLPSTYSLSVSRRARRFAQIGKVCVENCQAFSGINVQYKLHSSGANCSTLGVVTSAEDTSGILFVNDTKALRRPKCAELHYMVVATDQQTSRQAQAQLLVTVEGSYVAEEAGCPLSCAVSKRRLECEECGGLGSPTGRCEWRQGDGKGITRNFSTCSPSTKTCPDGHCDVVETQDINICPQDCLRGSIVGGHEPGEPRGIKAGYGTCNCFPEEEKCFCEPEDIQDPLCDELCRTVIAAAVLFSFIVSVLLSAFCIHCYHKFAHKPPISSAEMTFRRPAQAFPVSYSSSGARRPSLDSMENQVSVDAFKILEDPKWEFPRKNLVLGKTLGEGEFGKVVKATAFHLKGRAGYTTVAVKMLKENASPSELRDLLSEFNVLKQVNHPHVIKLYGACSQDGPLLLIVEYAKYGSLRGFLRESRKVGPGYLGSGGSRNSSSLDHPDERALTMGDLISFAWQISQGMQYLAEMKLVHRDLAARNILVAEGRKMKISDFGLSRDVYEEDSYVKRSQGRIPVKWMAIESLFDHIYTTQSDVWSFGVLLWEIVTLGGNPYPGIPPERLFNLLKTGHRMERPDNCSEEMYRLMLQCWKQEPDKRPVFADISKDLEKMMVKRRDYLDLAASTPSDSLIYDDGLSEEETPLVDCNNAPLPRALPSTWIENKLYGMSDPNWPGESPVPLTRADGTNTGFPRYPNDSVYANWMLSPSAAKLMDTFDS
T21 sequence (P42336 whole entry C420R): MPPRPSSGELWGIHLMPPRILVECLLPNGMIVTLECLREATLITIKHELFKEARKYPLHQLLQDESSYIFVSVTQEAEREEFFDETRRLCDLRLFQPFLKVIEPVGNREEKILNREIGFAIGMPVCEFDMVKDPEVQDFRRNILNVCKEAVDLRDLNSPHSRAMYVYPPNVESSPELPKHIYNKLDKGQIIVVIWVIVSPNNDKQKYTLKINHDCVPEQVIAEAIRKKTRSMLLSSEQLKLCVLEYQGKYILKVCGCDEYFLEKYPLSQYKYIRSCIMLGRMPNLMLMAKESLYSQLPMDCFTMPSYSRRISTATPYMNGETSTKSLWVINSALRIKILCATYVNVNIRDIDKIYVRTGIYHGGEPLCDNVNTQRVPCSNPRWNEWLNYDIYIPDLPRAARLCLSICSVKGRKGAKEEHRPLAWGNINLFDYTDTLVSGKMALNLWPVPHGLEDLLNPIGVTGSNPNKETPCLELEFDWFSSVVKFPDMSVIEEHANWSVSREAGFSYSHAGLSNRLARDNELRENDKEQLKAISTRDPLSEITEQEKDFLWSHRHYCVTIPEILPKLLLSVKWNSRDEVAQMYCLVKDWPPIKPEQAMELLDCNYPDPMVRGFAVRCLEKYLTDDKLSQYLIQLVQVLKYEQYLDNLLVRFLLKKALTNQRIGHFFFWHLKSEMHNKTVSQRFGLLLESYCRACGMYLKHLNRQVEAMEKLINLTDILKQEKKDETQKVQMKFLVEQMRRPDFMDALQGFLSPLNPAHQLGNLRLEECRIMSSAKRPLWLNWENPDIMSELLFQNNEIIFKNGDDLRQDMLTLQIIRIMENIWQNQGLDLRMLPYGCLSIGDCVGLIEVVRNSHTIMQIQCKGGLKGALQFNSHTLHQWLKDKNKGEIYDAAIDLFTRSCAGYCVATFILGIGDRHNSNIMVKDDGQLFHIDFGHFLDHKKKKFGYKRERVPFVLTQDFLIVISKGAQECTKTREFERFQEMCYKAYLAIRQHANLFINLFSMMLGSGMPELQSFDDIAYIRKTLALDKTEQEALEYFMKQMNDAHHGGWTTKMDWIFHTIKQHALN
T10 sequence (O43318 whole entry): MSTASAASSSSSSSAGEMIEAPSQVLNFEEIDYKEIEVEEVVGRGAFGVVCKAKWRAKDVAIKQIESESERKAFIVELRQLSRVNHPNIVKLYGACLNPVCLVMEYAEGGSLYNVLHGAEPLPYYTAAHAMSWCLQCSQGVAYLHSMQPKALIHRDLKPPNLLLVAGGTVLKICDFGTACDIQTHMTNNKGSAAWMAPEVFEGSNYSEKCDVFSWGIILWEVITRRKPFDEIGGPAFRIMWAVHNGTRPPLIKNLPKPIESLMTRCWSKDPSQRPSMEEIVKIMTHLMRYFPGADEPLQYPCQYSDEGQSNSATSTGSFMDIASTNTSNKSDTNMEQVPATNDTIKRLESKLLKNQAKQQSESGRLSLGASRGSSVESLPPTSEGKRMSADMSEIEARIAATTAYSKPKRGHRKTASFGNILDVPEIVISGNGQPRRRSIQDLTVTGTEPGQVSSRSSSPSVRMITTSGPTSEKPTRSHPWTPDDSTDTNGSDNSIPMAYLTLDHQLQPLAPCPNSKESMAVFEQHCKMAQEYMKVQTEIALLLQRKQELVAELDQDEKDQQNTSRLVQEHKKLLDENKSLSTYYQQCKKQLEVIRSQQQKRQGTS
T13 sequence (O75460 19-977): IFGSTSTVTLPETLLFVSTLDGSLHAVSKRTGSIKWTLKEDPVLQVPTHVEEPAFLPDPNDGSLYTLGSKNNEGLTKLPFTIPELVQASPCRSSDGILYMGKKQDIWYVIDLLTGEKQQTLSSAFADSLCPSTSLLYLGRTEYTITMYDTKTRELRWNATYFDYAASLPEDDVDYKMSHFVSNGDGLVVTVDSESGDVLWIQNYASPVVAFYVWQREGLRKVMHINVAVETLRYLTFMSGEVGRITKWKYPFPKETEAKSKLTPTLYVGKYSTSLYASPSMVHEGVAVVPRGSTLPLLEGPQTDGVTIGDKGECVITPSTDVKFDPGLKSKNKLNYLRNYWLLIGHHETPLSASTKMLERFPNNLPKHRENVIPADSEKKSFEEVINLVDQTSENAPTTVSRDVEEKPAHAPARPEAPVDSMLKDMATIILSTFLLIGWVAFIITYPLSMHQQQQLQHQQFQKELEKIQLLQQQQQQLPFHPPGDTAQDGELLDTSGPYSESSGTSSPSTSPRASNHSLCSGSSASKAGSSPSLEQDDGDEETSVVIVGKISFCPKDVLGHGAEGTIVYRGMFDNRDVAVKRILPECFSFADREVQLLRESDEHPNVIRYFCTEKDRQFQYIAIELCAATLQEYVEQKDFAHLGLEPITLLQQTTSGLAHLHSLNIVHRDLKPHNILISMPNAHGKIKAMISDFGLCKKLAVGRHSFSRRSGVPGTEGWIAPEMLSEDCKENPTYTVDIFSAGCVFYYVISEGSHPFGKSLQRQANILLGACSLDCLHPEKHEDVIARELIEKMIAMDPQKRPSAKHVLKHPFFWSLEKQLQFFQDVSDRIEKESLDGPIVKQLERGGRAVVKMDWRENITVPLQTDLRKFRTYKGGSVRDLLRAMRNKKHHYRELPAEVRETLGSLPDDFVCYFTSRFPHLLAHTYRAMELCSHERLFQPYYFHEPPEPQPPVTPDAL
T2 sequence (O75582 49-318 limits assumed): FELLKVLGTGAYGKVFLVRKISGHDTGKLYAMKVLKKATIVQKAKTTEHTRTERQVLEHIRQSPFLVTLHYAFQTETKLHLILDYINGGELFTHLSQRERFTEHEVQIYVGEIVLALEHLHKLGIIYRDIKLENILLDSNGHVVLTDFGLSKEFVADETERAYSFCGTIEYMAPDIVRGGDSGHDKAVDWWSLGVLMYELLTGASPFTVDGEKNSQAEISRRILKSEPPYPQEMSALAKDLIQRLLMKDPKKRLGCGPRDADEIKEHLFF

NCCCNc1nc2c(Br)c(Br)c(Br)c(Br)c2[nH]1 [Compound 11, N-(3-aminopropyl)-4,5,6,7-tetrabromo-1H-benzo[d]imidazol-2-amine]
remaining binding at 1 µM (ULK2): 60% | remaining binding at 1 µM [1]: 100% | remaining binding at 1 µM (ZAK): 98% | % binding (EGFR(L861Q)): 96% | remaining binding at 1 µM (MUSK): 97% | remaining binding at 1 µM (KIT(V559D)): 97% | remaining binding at 1 µM (PAK7): 90% | remaining binding at 1 µM (BRK): 100% | % binding (CSNK1G2): 100% | remaining binding at 1 µM (NDR2): 100% | remaining binding at 1 µM (ERK8): 72% | remaining binding at 1 µM (TXK): 93% | remaining binding at 1 µM (STK39): 100% | remaining binding at 1 µM (MARK1): 100% | remaining binding at 1 µM (TAK1): 65% | remaining binding at 1 µM (CSNK2A1): 100% | % binding (LATS2): 70% | remaining binding at 1 µM (CHEK2): 80% | remaining binding at 1 µM (YSK4): 95% | remaining binding at 1 µM (ERN1): 91% | remaining binding at 1 µM (PIK3CA(Q546K)): 100% | remaining binding at 1 µM (ASK2): 90% | remaining binding at 1 µM [2]: 97% | remaining binding at 1 µM (CDK4-cyclinD3): 92% | % binding (BTK): 85% | remaining binding at 1 µM (ICK): 100% | remaining binding at 1 µM (RIOK1): 56% | remaining binding at 1 µM (PIK3CG): 96% | remaining binding at 1 µM (PIK3CA(C420R)): 100% | remaining binding at 1 µM (LRRK2(G2019S)): 70% | remaining binding at 1 µM (STK33): 77% | remaining binding at 1 µM (RET): 100% | remaining binding at 1 µM (NIM1): 99% | remaining binding at 1 µM (PLK3): 67%
